Assay results reported in US12139499B2, “Heteroaryl compounds for treating Huntington's disease” (PTC THERAPEUTICS, INC., priority 2018, dated 2024).

tested on: Endogenous Huntingtin Protein; assay: Endogenous Huntingtin Protein Assay (ELISA-based MSD electrochemiluminescence); type: cell-based; conditions: Table 1
Procedure: Compounds of Formula (I) or Formula (II) were tested using the Meso Scale Discovery (MSD) Assay provided in International Application No. PCT/US2016/066042, filed on Dec. 11, 2016 and claiming priority to U.S. Provisional Application 62/265,652 filed on Dec. 10, 2015, the entire contents of which are incorporated herein by reference.
The Endogenous Huntingtin Protein assay used in Example 1 was developed using the ELISA-based MSD electrochemiluminescence assay platform.
Endogenous Huntingtin Protein Assay
Meso Scale Discovery (MSD) 96-well or 384-well plates were coated overnight at 4° C. with MW1 (expanded polyglutamine) or MAB2166 monoclonal antibody (for capture) at a concentration of 1 μg/mL in PBS (30 μL per well). Plates were then washed three times with 300 μL wash buffer (0.05% Tween-20 in PBS) and blocked (100 μL blocking buffer; 5% BSA in PBS) for 4-5 hours at room temperature with rotational shaking and then washed three times with wash buffer.
Samples (25 μL) were transferred to the antibody-coated MSD plate and incubated overnight at 4° C. After removal of the lysates, the plate was washed three times with wash buffer, and 25 μL of #5656S (Cell signaling; rabbit monoclonal) secondary antibody (diluted to 0.25 μg/mL in 0.05% Tween-20 in blocking buffer) was added to each well and incubated with shaking for 1 Hour at room temperature. Following incubation with the secondary antibody, the wells were rinsed with wash buffer after which 25 μL of goat anti-rabbit SULFO TAG secondary detection antibody (required aspect of the MSD system) (diluted to 0.25 μg/mL in 0.05% Tween-20 in blocking buffer) was added to each well and incubated with shaking for 1 hour at room temperature. After rinsing three times with wash buffer, 150 μL of read buffer T with surfactant (MSD) were added to each empty well, and the plate was imaged on a SI 6000 imager (MSD) according to manufacturers' instructions provided for 96- or 384-well plates.

| SMILES | IC50 [nM] |
| --- | --- |
| Cn1cc2cc(-c3ccc4nc(NC5CCNCC5)sc4c3)ccc2n1 [Compound 35, 6-(2-methyl-2H-indazol-5-yl)-N-(piperidin-4-yl)-1,3-benzothiazol-2-amine] | 100 to 500 |
| Cc1cc(-c2ccc3nc(N(C)C4CCNCC4)sc3n2)cc2cn(C)nc12 [Compound 36, 5-(2,7-dimethyl-2H-indazol-5-yl)-N-methyl-N-(piperidin-4-yl)[1,3]thiazolo[5,4-b]pyridin-2-amine] | 100 to 500 |
| Cc1cn2nc(-c3cc(F)c4nc(N(C)C5CC(C)(C)NC(C)(C)C5)sc4c3)ccc2n1 [Compound 37, 4-fluoro-N-methyl-6-(2-methylimidazo[1,2-b]pyridazin-6-yl)-N-(2,2,6,6-tetramethylpiperidin-4-yl)-1,3-benzothiazol-2-amine] | ≤ 100 |
| CN(c1nc2ccc(-c3ccc4nn(C)cc4c3)cc2s1)C1CCNC1 (stereo not shown) [Compound 38, N-methyl-6-(2-methyl-2H-indazol-5-yl)-N-(pyrrolidin-3-yl)-1,3-benzothiazol-2-amine] | 1000 to 3000 |
| Cc1cn2cc(-c3cc(F)c4nc(N(C)C5CC(C)(C)NC(C)(C)C5)sc4c3)cc(C)c2n1 [Compound 39, 6-(2,8-dimethylimidazo[1,2-a]pyridin-6-yl)-4-fluoro-N-methyl-N-(2,2,6,6-tetramethylpiperidin-4-yl)-1,3-benzothiazol-2-amine] | ≤ 100 |
| Cc1cn2nc(-c3ccc4nc(N(C)C5CC(C)(C)NC(C)(C)C5)sc4c3)ccc2n1 [Compound 40, N-methyl-6-(2-methylimidazo[1,2-b]pyridazin-6-yl)-N-(2,2,6,6-tetramethylpiperidin-4-yl)-1,3-benzothiazol-2-amine] | ≤ 100 |
| Cn1cc2cc(-c3ccc4nc(C5(F)CCNCC5)sc4c3)ccc2n1 [Compound 41, 2-(4-fluoropiperidin-4-yl)-6-(2-methyl-2H-indazol-5-yl)-1,3-benzothiazole] | 1000 to 3000 |
| Cn1cc2cc(-c3ccc4nc(C5CCCNCC5)sc4c3)ccc2n1 (stereo not shown) [Compound 42, 2-(azepan-4-yl)-6-(2-methyl-2H-indazol-5-yl)-1,3-benzothiazole] | 100 to 500 |
| Cn1cc2cc(-c3nc4ncc(C5CCNCC5)cc4s3)ccc2n1 [Compound 43, 2-(2-methyl-2H-indazol-5-yl)-6-(piperidin-4-yl)[1,3]thiazolo[4,5-b]pyridine] | 100 to 500 |
| Cc1cn2nc(-c3cc(F)c4nc(C5=CCNCC5)sc4c3)ccc2n1 [Compound 44, 6-[4-fluoro-2-(1,2,3,6-tetrahydropyridin-4-yl)-1,3-benzothiazol-6-yl]-2-methylimidazo[1,2-b]pyridazine] | ≤ 100 |
| Cc1cn2nc(-c3cc(F)c4nc(C5CCNCC5)sc4c3)ccc2n1 [Compound 45, 6-[4-fluoro-2-(piperidin-4-yl)-1,3-benzothiazol-6-yl]-2-methylimidazo[1,2-b]pyridazine] | ≤ 100 |
| Cc1cn2nc(-c3cc(F)c4nc(C5=CCNCC5)sc4c3)cc(C)c2n1 [Compound 46, 6-[4-fluoro-2-(1,2,3,6-tetrahydropyridin-4-yl)-1,3-benzothiazol-6-yl]-2,8-dimethylimidazo[1,2-b]pyridazine] | ≤ 100 |
| Cc1cn2nc(-c3cc(F)c4nc(C5CCNCC5)sc4c3)cc(C)c2n1 [Compound 47, 6-[4-fluoro-2-(piperidin-4-yl)-1,3-benzothiazol-6-yl]-2,8-dimethylimidazo[1,2-b]pyridazine] | ≤ 100 |
| Cc1nc2ccc(-c3ccc4nc(N(C)C5CC(C)(C)NC(C)(C)C5)sc4c3)nn2n1 [Compound 48, N-methyl-6-(2-methyl[1,2,4]triazolo[1,5-b]pyridazin-6-yl)-N-(2,2,6,6-tetramethylpiperidin-4-yl)-1,3-benzothiazol-2-amine] | 100 to 500 |
| Cc1cc(-c2nc3ccc(C4=CCNCC4)cc3s2)cc2cn(C)nc12 [Compound 49, 2-(2,7-dimethyl-2H-indazol-5-yl)-6-(1,2,3,6-tetrahydropyridin-4-yl)-1,3-benzothiazole] | 100 to 500 |
| Cc1cc(-c2nc3ccc(C4CCNCC4)cc3s2)cc2cn(C)nc12 [Compound 50, 2-(2,7-dimethyl-2H-indazol-5-yl)-6-(piperidin-4-yl)-1,3-benzothiazole] | 100 to 500 |
| CN(c1nc2ccc(-c3cc(C(F)(F)F)c4nn(C)cc4c3)cc2s1)C1CC(C)(C)NC(C)(C)C1 [Compound 51, N-methyl-6-[2-methyl-7-(trifluoromethyl)-2H-indazol-5-yl]-N-(2,2,6,6-tetramethylpiperidin-4-yl)-1,3-benzothiazol-2-amine] | 100 to 500 |

| SMILES | IC50 [nM] |
| --- | --- |
| Cn1cc2cc(-c3ccc4nc(C5CC(C)(C)NC(C)(C)C5)sc4c3)ccc2n1 [Compound 52, 6-(2-methyl-2H-indazol-5-yl)-2-(2,2,6,6-tetramethylpiperidin-4-yl)-1,3-benzothiazole] | 1000 to 3000 |
| Cc1cn2cc(-c3cc(F)c4nc(C5=CCNCC5)sc4c3)nc(C)c2n1 [Compound 53, 6-[4-fluoro-2-(1,2,3,6-tetrahydropyridin-4-yl)-1,3-benzothiazol-6-yl]-2,8-dimethylimidazo[1,2-a]pyrazine] | 100 to 500 |
| CCc1cc(-c2ccc3nc(N(C)C4CC(C)(C)NC(C)(C)C4)sc3c2)cc2cn(C)nc12 [Compound 54, 6-(7-ethyl-2-methyl-2H-indazol-5-yl)-N-methyl-N-(2,2,6,6-tetramethylpiperidin-4-yl)-1,3-benzothiazol-2-amine] | 100 to 500 |
| Cc1cn2cc(-c3ccc4nc(N(C)C5CC(C)(C)NC(C)(C)C5)sc4c3)cc2c(C)n1 [Compound 55, 6-(1,3-dimethylpyrrolo[1,2-a]pyrazin-7-yl)-N-methyl-N-(2,2,6,6-tetramethylpiperidin-4-yl)-1,3-benzothiazol-2-amine] | ≤ 100 |
| Cn1cc2cc(-c3ccc4nc(C5=CCCNCC5)sc4c3)ccc2n1 [Compound 56, 6-(2-methyl-2H-indazol-5-yl)-2-(2,3,6,7-tetrahydro-1H-azepin-4-yl)-1,3-benzothiazole] | 500 to 1000 |
| CN(c1nc2ccc(-c3cc(F)c4nn(C)cc4c3)cc2s1)C1CC(C)(C)NC(C)(C)C1 [Compound 57, 6-(7-fluoro-2-methyl-2H-indazol-5-yl)-N-methyl-N-(2,2,6,6-tetramethylpiperidin-4-yl)-1,3-benzothiazol-2-amine] | ≤ 100 |
| CC1CC(c2nc3ccc(-c4ccc5nn(C)cc5c4)cc3s2)CCN1 (stereo not shown) [Compound 58, 6-(2-methyl-2H-indazol-5-yl)-2-(2-methylpiperidin-4-yl)-1,3-benzothiazole] | 500 to 1000 |
| Cc1cc(-c2cc3sc(C4CCNCC4)nc3cn2)cc2cn(C)nc12 [Compound 59, 6-(2,7-dimethyl-2H-indazol-5-yl)-2-(piperidin-4-yl)[1,3]thiazolo[4,5-c]pyridine] | 100 to 500 |
| Cn1cc2cc(-c3cc4sc(C5CCNCC5)nc4cn3)cc(C(F)(F)F)c2n1 [Compound 60, 6-[2-methyl-7-(trifluoromethyl)-2H-indazol-5-yl]-2-(piperidin-4-yl)[1,3]thiazolo[4,5-c]pyridine] | 100 to 500 |
| Cc1cn2nc(-c3cnc4nc(C5CCNCC5)sc4c3)cc(C)c2n1 [Compound 61, 6-(2,8-dimethylimidazo[1,2-b]pyridazin-6-yl)-2-(piperidin-4-yl)[1,3]thiazolo[4,5-b]pyridine] | ≤ 100 |
| CN(c1nc2ccc(-c3cc(C#N)c4nn(C)cc4c3)cc2s1)C1CC(C)(C)NC(C)(C)C1 [Compound 62, 2-methyl-5-{2-[methyl(2,2,6,6-tetramethylpiperidin-4-yl)amino]-1,3-benzothiazol-6-yl}-2H-indazole-7-carbonitrile] | ≤ 100 |
| Cc1cn2cc(-c3ccc4nc(N(C)C5CC(C)(C)NC(C)(C)C5)sc4c3)ccc2n1 [Compound 63, N-methyl-6-(2-methylimidazo[1,2-a]pyridin-6-yl)-N-(2,2,6,6-tetramethylpiperidin-4-yl)-1,3-benzothiazol-2-amine] | 100 to 500 |
| Cn1cc2cc(-c3ccc4nc(OC5CC(C)(C)NC(C)(C)C5)sc4c3)ccc2n1 [Compound 64, 6-(2-methyl-2H-indazol-5-yl)-2-[(2,2,6,6-tetramethylpiperidin-4-yl)oxy]-1,3-benzothiazole] | 1000 to 3000 |
| CC1CC(c2nc3ccc(-c4ccc5nn(C)cc5c4)cc3s2)=CCN1 (stereo not shown) [Compound 65, 6-(2-methyl-2H-indazol-5-yl)-2-(2-methyl-1,2,3,6-tetrahydropyridin-4-yl)-1,3-benzothiazole] | 100 to 500 |
| Cc1cc(-c2ccc3nc(N(C)C4CCNC(C)C4)sc3c2)cc2cn(C)nc12 (stereo not shown) [Compound 66, 6-(2,7-dimethyl-2H-indazol-5-yl)-N-methyl-N-(2-methylpiperidin-4-yl)-1,3-benzothiazol-2-amine] | ≤ 100 |
| CC1C=C(c2nc3ccc(-c4ccc5nn(C)cc5c4)cc3s2)CCN1 (stereo not shown) [Compound 67, 6-(2-methyl-2H-indazol-5-yl)-2-(6-methyl-1,2,3,6-tetrahydropyridin-4-yl)-1,3-benzothiazole] | 1000 to 3000 |
| Cc1cc(-c2ccc3nc(OC4CC(C)(C)NC(C)(C)C4)sc3c2)cc2cn(C)nc12 [Compound 68, 6-(2,7-dimethyl-2H-indazol-5-yl)-2-[(2,2,6,6-tetramethylpiperidin-4-yl)oxy]-1,3-benzothiazole] | 1000 to 3000 |
